Data as given in PubChem BioAssay (NCI).
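In this assay, cells in 96-well plates receive the compound at five concentrations for 48 hours. Endpoints are linearly interpolated between the surrounding concentrations. GI50: concentration for 50% inhibition of growth. The concentration for full growth arrest is given as TGI.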

How the values were obtained:
Assay in all cases: inhibition of tumour cell growth, NCI panel, 48 h
[1] = test system: U251 CNS
[2] = test system: IGROV1 ovarian
[3] = test system: MDA-N
[4] = test system: OVCAR-5 ovarian
[5] = test system: SNB-75 CNS
[6] = test system: RXF 393 renal
[7] = test system: K-562 leukemia
[8] = test system: SF-268 CNS
[9] = test system: MCF7 breast
[10] = test system: KM20L2 colon
[11] = test system: SNB-78 CNS
[12] = test system: DMS 273 small cell lung

Structure (SMILES)	TGI [1] [µM]	TGI [2] [µM]	TGI [3] [µM]	TGI [4] [µM]	TGI [5] [µM]	TGI [6] [µM]	TGI [7] [µM]	TGI [8] [µM]	GI50 [1] [µM]	GI50 [9] [µM]	TGI [9] [µM]	GI50 [5] [µM]	GI50 [6] [µM]	GI50 [8] [µM]	GI50 [7] [µM]	GI50 [2] [µM]	GI50 [4] [µM]	TGI [10] [µM]	TGI [11] [µM]	TGI [12] [µM]
O=[N+]([O-])c1ccc(N=Nc2c(O)ccc3cc(S(=O)(=O)O)ccc23)cc1	> 100	> 100	> 100	> 100	> 100	> 100	> 100	> 100	–	–	–	–	–	–	–	–	–	–	–	–
O=C(CCCn1c(=O)c2sc3ccccc3c2n2nnc(-c3ccccc3)c12)NCCc1cnc[nH]1	2.24	–	–	–	4.03	5.02	–	3.72	1.06	1.45	3.08	1.86	2.52	1.77	–	–	–	–	–	–
CO[C@H]1[C@@H](O)[C@@H](C)O[C@@H](O[C@H]2CC[C@@]3(C)[C@H](CC[C@@H]4[C@@H]3CC[C@]3(C)[C@@H](C5=CC(=O)OC5)CC[C@]43O)C2)[C@@H]1O	0.0415	0.0848	0.0504	0.0932	0.0271	0.00617	0.371	0.0366	–	–	1.1	–	–	–	0.00633	–	–	–	–	–
COc1cc(-c2n/c(=C\c3c(O)[nH]c4ccc(Cl)cc34)cc3c2=Nc2ccccc2-3)cc(OC)c1OC	–	4.09	–	16.9	4.84	3.33	10.1	3.95	–	0.316	1.38	1.72	1.63	1.6	0.728	0.685	5.15	–	–	–
[N-]=[N+]=Nc1ccc(NCCCCCC(=O)ON2C(=O)CCC2=O)c([N+](=O)[O-])c1	> 100	> 100	–	> 100	> 100	> 100	> 100	> 100	–	–	> 100	–	–	–	–	–	–	–	–	–
O=c1[nH][nH]c(=O)[nH]1	> 100	> 100	–	> 100	> 100	> 100	> 100	> 100	–	–	–	–	–	–	–	–	–	> 100	> 100	> 100
Cc1nc2ccccc2c(=O)n1-c1n[nH]c2ccccc12	> 100	> 100	–	> 100	> 100	> 100	> 100	> 100	–	–	> 100	–	–	–	–	–	–	–	–	–
O=S1(=O)NNC(=NCc2ccc(Cl)c(Cl)c2)c2ccccc21	> 100	> 100	–	> 100	–	> 100	> 100	> 100	–	–	–	–	–	–	–	–	–	> 100	> 100	> 100
CN1CCN(c2ccc(-c3ccc4ncc(C#N)c(Nc5ccc(F)c(Cl)c5)c4c3)cc2)CC1	7.47	10.5	–	25.5	15.9	5.54	–	15.9	2.3	3.18	14.9	2.33	1.62	2.87	–	0.321	4.74	–	–	–
CN(C)CCNc1ccc2ncnc3c2c1C(=O)c1ccccc1-3	17.9	0.574	4.11	3.42	6.96	2.32	6.75	4.48	–	–	2.57	–	–	–	–	–	–	–	–	–
CCn1nc(C)c2c1C(=O)NC(C)C(=O)N2 (centres undefined)	> 100	> 100	> 100	> 100	> 100	> 100	–	> 100	–	–	–	–	–	–	–	–	–	–	–	–
CC(C)(N)CO[C@H]1C[C@H]2CC[C@@]1(C)C2(C)C	36.4	> 100	30.2	41.3	39.3	28.2	43.3	> 100	–	–	37.1	–	–	–	–	–	–	–	–	–
C=C(C)[C@@H]1CC[C@]2(C)CC[C@]3(C)[C@H](CC[C@@H]4[C@@]5(C)CC[C@H](OC(=O)c6ccccc6)C(C)(C)[C@@H]5CC[C@]43C)[C@@H]12	> 100	> 100	> 100	> 100	> 100	–	> 100	> 100	–	–	> 100	–	–	–	–	–	–	–	–	–
COc1cc2cc[n+](C)c(Cc3ccccc3)c2cc1OC	> 100	> 100	–	> 100	> 100	> 100	> 100	> 100	–	–	–	–	–	–	–	–	–	> 100	> 100	> 100
CNC(C)Cc1ccccc1O (centres undefined)	> 100	> 100	–	> 100	> 100	> 100	> 100	> 100	–	–	–	–	–	–	–	–	–	> 100	> 100	> 100
Cc1nc(Cl)c(Cl)c(Cl)n1	4.07	0.344	3.15	3.03	2.7	1.85	0.0358	4.27	–	–	1.91	–	–	–	–	–	–	–	–	–
COc1ccc(-c2cc(-c3ccccc3)n(C3OCC(OC(C)=O)C(OC(C)=O)C3OC(C)=O)c(=S)c2C#N)cc1 (centres undefined)	> 100	> 100	> 100	> 100	> 100	> 100	> 100	> 100	–	–	> 100	–	–	–	–	–	–	–	–	–
Nc1ccc2c(c1)C1=NNC(=O)CC1C2 (centres undefined)	> 100	> 100	–	> 100	> 100	> 100	> 100	> 100	–	–	> 31.6	–	–	–	–	–	–	> 100	> 100	> 100
COc1ccc(NS(=O)c2ccc(-c3ccccc3)cc2)cc1 (centres undefined)	> 100	> 100	> 100	> 100	62.5	> 100	> 100	> 100	–	–	> 100	–	–	–	–	–	–	–	–	–
CC1SC(c2ccccc2)N(Nc2c3ccccc3nc3ccccc23)C1=O (centres undefined)	> 100	> 100	–	> 100	> 100	–	> 100	> 100	–	–	–	–	–	–	–	–	–	> 100	> 100	> 100
CC(CN(C)C)C(=O)c1ccccc1C(=O)O (centres undefined)	38.2	> 100	> 100	> 100	–	> 100	> 100	> 100	–	–	> 100	–	–	–	–	–	–	–	–	–
